Data published in patent US7118895B2, “Process for producing aglycon by using diglycosidase and flavor-improved food containing the aglycon and converting agent to be used in the process” (Amano Enzyme Inc., priority 2000, dated 2006).

Tested on: Crude diglycosidase
Assay: Examination of pH in the conversion into isoflavone aglycons by diglycosidase using soybean materials
Assay type: biochemical, Penicillium multicolor IAM7153
Set-up: Decomposition efficiency of genistin family in soymilk / Decomposition efficiency of genistin family in defatted soybean / Decomposition efficiency of daidzin family in defatted soybean: concentration or dose not given beside the values
Settings: for Decomposition efficiency of daidzin family in roasted soy flour: 55° C.
Protocol: A substrate solution of 450 μL was prepared by suspending 50 mg of each soybean material (roasted soy flour (manufactured by Fuji Shokuryo K.K.), soymilk (manufactured by Gitoh Shokuhin K.K.), defatted soybean (manufactured by Fuji Seiyu K.K.), concentrated soybean protein (manufactured by Fuji Seiyu K.K.)), and adjusting the pH to 2 to 11 with hydrochloric acid or sodium hydroxide. Each enzyme solution of pH 2–11 wherein diglycosidase activity of crude diglycosidase was adjusted to 1.88 AU/mL was added thereto in an amount of 50 μL and the whole was reacted at 55° C. at the total volume of 500 μL. To the reaction mixture was added 700 μL of ethanol after 0, 1, 3, and 6 hours of the reaction. After stirring and ultrasonication, the mixture was subjected to centrifugal separation at 15,000 rpm and 4° C. for 10 minutes. The supernatant was filtered through a filter and the existence of isoflavone glycosides and aglycon isoflavones contained in the reaction mixture was detected by HLPC (Tables 15 to 26).

[1] = pH6.6, heat treatment of enzyme: no, reaction time 0 h
[2] = pH6.6, heat treatment of enzyme: no, reaction time 1 h
[3] = pH6.6, heat treatment of enzyme: no, reaction time 3 h
[4] = pH6.6, heat treatment of enzyme: no, reaction time 6 h
[5] = pH6.6, heat treatment of enzyme: yes, reaction time 6 h

## O=c1c(-c2ccc(O)cc2)coc2cc(O)ccc12 [daidzein]
pH5, heat treatment of enzyme no, reaction time 0 h
  Decomposition efficiency of daidzin family in roasted soy flour: 3.5
pH5, heat treatment of enzyme no, reaction time 1 h
  Decomposition efficiency of daidzin family in roasted soy flour: 61.5
pH5, heat treatment of enzyme no, reaction time 3 h
  Decomposition efficiency of daidzin family in roasted soy flour: 75.3
pH5, heat treatment of enzyme no, reaction time 6 h
  Decomposition efficiency of daidzin family in roasted soy flour: 84.8
pH5, heat treatment of enzyme yes, reaction time 6 h
  Decomposition efficiency of daidzin family in roasted soy flour: 4.4
pH5.1, heat treatment of enzyme: no, reaction time 0 h
  Decomposition efficiency of daidzin family in concentrated soybean protein: 3.0%
pH5.1, heat treatment of enzyme: no, reaction time 1 h
  Decomposition efficiency of daidzin family in concentrated soybean protein: 56.6%
pH5.1, heat treatment of enzyme: no, reaction time 3 h
  Decomposition efficiency of daidzin family in concentrated soybean protein: 63.0%
pH5.1, heat treatment of enzyme: no, reaction time 6 h
  Decomposition efficiency of daidzin family in concentrated soybean protein: 68.8%
pH5.1, heat treatment of enzyme: yes, reaction time 6 h
  Decomposition efficiency of daidzin family in concentrated soybean protein: 3.2%
pH5.4, heat treatment of enzyme: no, reaction time 0 h
  Decomposition efficiency of daidzin family in defatted soybean: 15.7%
pH5.4, heat treatment of enzyme: no, reaction time 1 h
  Decomposition efficiency of daidzin family in defatted soybean: 55.8%
pH5.4, heat treatment of enzyme: no, reaction time 3 h
  Decomposition efficiency of daidzin family in defatted soybean: 58.5%
pH5.4, heat treatment of enzyme: no, reaction time 6 h
  Decomposition efficiency of daidzin family in defatted soybean: 63.1%
pH5.4, heat treatment of enzyme: yes, reaction time 6 h
  Decomposition efficiency of daidzin family in defatted soybean: 55.1%
pH6.2, heat treatment of enzyme: no, reaction time 0 h
  Decomposition efficiency of daidzin family in soymilk: 9.0%
pH6.2, heat treatment of enzyme: no, reaction time 1 h
  Decomposition efficiency of daidzin family in soymilk: 45.9%
pH6.2, heat treatment of enzyme: no, reaction time 3 h
  Decomposition efficiency of daidzin family in soymilk: 53.6%
pH6.2, heat treatment of enzyme: no, reaction time 6 h
  Decomposition efficiency of daidzin family in soymilk: 58.1%
pH6.2, heat treatment of enzyme: yes, reaction time 6 h
  Decomposition efficiency of daidzin family in soymilk: 9.7%
pH6.5, heat treatment of enzyme no, reaction time 0 h
  Decomposition efficiency of daidzin family in roasted soy flour: 3.4
pH6.5, heat treatment of enzyme no, reaction time 1 h
  Decomposition efficiency of daidzin family in roasted soy flour: 54.6
pH6.5, heat treatment of enzyme no, reaction time 3 h
  Decomposition efficiency of daidzin family in roasted soy flour: 60.8
pH6.5, heat treatment of enzyme no, reaction time 6 h
  Decomposition efficiency of daidzin family in roasted soy flour: 65.6
pH6.5, heat treatment of enzyme yes, reaction time 6 h
  Decomposition efficiency of daidzin family in roasted soy flour: 4.7
[1]
  Decomposition efficiency of daidzin family in concentrated soybean protein: 3.0%
  Decomposition efficiency of daidzin family in defatted soybean: 13.2%
[2]
  Decomposition efficiency of daidzin family in concentrated soybean protein: 51.0%
  Decomposition efficiency of daidzin family in defatted soybean: 54.1%
[3]
  Decomposition efficiency of daidzin family in concentrated soybean protein: 57.1%
  Decomposition efficiency of daidzin family in defatted soybean: 56.0%
[4]
  Decomposition efficiency of daidzin family in concentrated soybean protein: 58.8%
  Decomposition efficiency of daidzin family in defatted soybean: 58.2%
[5]
  Decomposition efficiency of daidzin family in concentrated soybean protein: 3.2%
  Decomposition efficiency of daidzin family in defatted soybean: 49.5%
pH7.2, heat treatment of enzyme: no, reaction time 0 h
  Decomposition efficiency of daidzin family in soymilk: 9.0%
pH7.2, heat treatment of enzyme: no, reaction time 1 h
  Decomposition efficiency of daidzin family in soymilk: 43.6%
pH7.2, heat treatment of enzyme: no, reaction time 3 h
  Decomposition efficiency of daidzin family in soymilk: 47.6%
pH7.2, heat treatment of enzyme: no, reaction time 6 h
  Decomposition efficiency of daidzin family in soymilk: 51.8%
pH7.2, heat treatment of enzyme: yes, reaction time 6 h
  Decomposition efficiency of daidzin family in soymilk: 10.2%
pH7.8, heat treatment of enzyme: no, reaction time 0 h
  Decomposition efficiency of daidzin family in defatted soybean: 13.3%
pH7.8, heat treatment of enzyme: no, reaction time 1 h
  Decomposition efficiency of daidzin family in defatted soybean: 43.1%
pH7.8, heat treatment of enzyme: no, reaction time 3 h
  Decomposition efficiency of daidzin family in defatted soybean: 48.4%
pH7.8, heat treatment of enzyme: no, reaction time 6 h
  Decomposition efficiency of daidzin family in defatted soybean: 51.9%
pH7.8, heat treatment of enzyme: yes, reaction time 6 h
  Decomposition efficiency of daidzin family in defatted soybean: 21.7%
pH8.5, heat treatment of enzyme no, reaction time 0 h
  Decomposition efficiency of daidzin family in roasted soy flour: 3.8
pH8.5, heat treatment of enzyme no, reaction time 1 h
  Decomposition efficiency of daidzin family in roasted soy flour: 36.9
pH8.5, heat treatment of enzyme no, reaction time 3 h
  Decomposition efficiency of daidzin family in roasted soy flour: 46.4
pH8.5, heat treatment of enzyme no, reaction time 6 h
  Decomposition efficiency of daidzin family in roasted soy flour: 51.8
pH8.5, heat treatment of enzyme yes, reaction time 6 h
  Decomposition efficiency of daidzin family in roasted soy flour: 3.9
pH8.6, heat treatment of enzyme: no, reaction time 0 h
  Decomposition efficiency of daidzin family in concentrated soybean protein: 3.2%
pH8.6, heat treatment of enzyme: no, reaction time 1 h
  Decomposition efficiency of daidzin family in concentrated soybean protein: 9.9%
pH8.6, heat treatment of enzyme: no, reaction time 3 h
  Decomposition efficiency of daidzin family in concentrated soybean protein: 15.9%
pH8.6, heat treatment of enzyme: no, reaction time 6 h
  Decomposition efficiency of daidzin family in concentrated soybean protein: 27.4%
pH8.6, heat treatment of enzyme: yes, reaction time 6 h
  Decomposition efficiency of daidzin family in concentrated soybean protein: 3.2%
pH11.6, heat treatment of enzyme: no, reaction time 0 h
  Decomposition efficiency of daidzin family in soymilk: 8.7%
pH11.6, heat treatment of enzyme: no, reaction time 1 h
  Decomposition efficiency of daidzin family in soymilk: 43.6%
pH11.6, heat treatment of enzyme: no, reaction time 3 h
  Decomposition efficiency of daidzin family in soymilk: 49.6%
pH11.6, heat treatment of enzyme: no, reaction time 6 h
  Decomposition efficiency of daidzin family in soymilk: 52.3%
pH11.6, heat treatment of enzyme: yes, reaction time 6 h
  Decomposition efficiency of daidzin family in soymilk: 9.3%
